Data on seven compounds can be found in PubChem BioAssay (NCI).

The structures appear in SMILES notation.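 Grown in 96-well plates, cells were treated for 48 hours with each compound at five concentrations. Insufficient inhibition: endpoint recorded as highest concentration tested. GI50 is the concentration that inhibits growth by half. TGI: concentration producing complete growth inhibition.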

Test systems include OVCAR-5 ovarian; LOX IMVI melanoma; SF-295 CNS; MOLT-4 leukemia; PC-3 prostate; RXF 393 renal; SNB-75 CNS; HOP-92 NSCLC; SF-268 CNS; SK-MEL-2 melanoma.
Holding throughout (test): DTP human tumour cell line panel, 48 h

Consider `O=c1oc2ccc(Cl)cc2c(=O)n1-c1ccc(I)cc1F`, for which the GI50 – broadly, the concentration giving 50% growth inhibition – was 3.58 µM with OVCAR-5 ovarian; 0.248 µM in the assay with LOX IMVI melanoma; 1.03 µM with SF-295 CNS; 0.384 µM with MOLT-4 leukemia; 0.924 µM with PC-3 prostate; 0.339 µM in the assay on RXF 393 renal. Also, the GI50 is 0.2 µM in the assay with SNB-75 CNS, 0.0571 µM in the assay with HOP-92 NSCLC, 0.26 µM with SF-268 CNS and 0.116 µM with SK-MEL-2 melanoma. Moreover, the TGI (commonly the concentration at which net growth stops) in the assay on OVCAR-5 ovarian is greater than 100 µM; with LOX IMVI melanoma, 1.69 µM; in the assay on SF-295 CNS, 2.79 µM; in the assay on MOLT-4 leukemia, 1.81 µM; in the assay on PC-3 prostate it was 6.92 µM; in the assay with RXF 393 renal it was 1.57 µM. Besides, the TGI in the assay with SNB-75 CNS is 1.36 µM; with HOP-92 NSCLC, 0.202 µM; in the assay on SF-268 CNS, 4.11 µM; with SK-MEL-2 melanoma, 0.945 µM.

Consider `CN(C)c1ccc(N=Nc2c([O-])ccc3ccccc23)cc1.[C-]#[O+].[C-]#[O+].[Ir]`, for which the GI50 is greater than 42.1 µM in the assay with OVCAR-5 ovarian; 18.6 µM with LOX IMVI melanoma; greater than 100 µM with SF-295 CNS; 12.6 µM in the assay with MOLT-4 leukemia; 17.7 µM in the assay with PC-3 prostate; 18.3 µM in the assay on RXF 393 renal. In addition, the GI50 was 54.8 µM in the assay with SNB-75 CNS, 2.72 µM with HOP-92 NSCLC, 26.9 µM with SF-268 CNS and 23.8 µM in the assay on SK-MEL-2 melanoma. In addition, the TGI in the assay on OVCAR-5 ovarian was greater than 58.7 µM; in the assay with LOX IMVI melanoma, 40.5 µM; in the assay on SF-295 CNS, greater than 100 µM; in the assay with MOLT-4 leukemia, 59.5 µM; in the assay with PC-3 prostate, 34.5 µM; with RXF 393 renal, 32.9 µM. The TGI is greater than 100 µM in the assay with SNB-75 CNS, 8.64 µM in the assay with HOP-92 NSCLC, 76.6 µM in the assay on SF-268 CNS and 48.2 µM in the assay on SK-MEL-2 melanoma.

Consider `Nc1nc(Nc2cccc(F)c2)nc2ccccc12`, for which the GI50 in the assay on OVCAR-5 ovarian was 17.4 µM; with LOX IMVI melanoma, 15.5 µM; in the assay on SF-295 CNS, 17.8 µM; with MOLT-4 leukemia, 14.6 µM; in the assay on PC-3 prostate it was 31 µM; with RXF 393 renal, 16.9 µM. Further, the GI50 with SNB-75 CNS is 15.8 µM; with HOP-92 NSCLC, 13.8 µM; in the assay on SF-268 CNS, 28.5 µM; with SK-MEL-2 melanoma, 25.3 µM. Further, the TGI was 43.5 µM in the assay on OVCAR-5 ovarian; 29 µM with LOX IMVI melanoma; 42.7 µM with SF-295 CNS; greater than 100 µM in the assay with MOLT-4 leukemia; greater than 100 µM in the assay on PC-3 prostate; 45.3 µM with RXF 393 renal. Also, the TGI was 50.4 µM in the assay on SNB-75 CNS, 38.5 µM in the assay on HOP-92 NSCLC, greater than 100 µM with SF-268 CNS and 48.8 µM with SK-MEL-2 melanoma.

As for `COC(=O)[C@@H]1CCCN1C(=O)[C@@H]1CCCN1C(=O)[C@@H](Cc1c[nH]c2ccccc12)NC(=S)Nc1cc(C(F)(F)F)cc(C(F)(F)F)c1`, the GI50 in the assay with OVCAR-5 ovarian was 15 µM; with LOX IMVI melanoma, 1.89 µM; in the assay on SF-295 CNS it was 6.48 µM; in the assay with MOLT-4 leukemia, 3.16 µM; in the assay with PC-3 prostate it was 2.95 µM; in the assay with RXF 393 renal it was 2.14 µM. For the same compound, the GI50 is 1.91 µM in the assay on SNB-75 CNS, 1.46 µM in the assay on HOP-92 NSCLC, 6.44 µM in the assay with SF-268 CNS and 2.49 µM in the assay on SK-MEL-2 melanoma. Also, the TGI in the assay on OVCAR-5 ovarian is 73 µM; with LOX IMVI melanoma it was 4.38 µM; in the assay on SF-295 CNS it was greater than 100 µM; in the assay on MOLT-4 leukemia, greater than 100 µM; in the assay with PC-3 prostate it was 24.9 µM; in the assay on RXF 393 renal it was 5.89 µM. The TGI with SNB-75 CNS was greater than 100 µM; in the assay on HOP-92 NSCLC, 5.26 µM; in the assay with SF-268 CNS, greater than 100 µM; with SK-MEL-2 melanoma, 5.11 µM.

Consider `Cn1cc(-c2ccc3c(c2)CCN3C(=O)Cc2cccc(C(F)(F)F)c2)c2c(N)ncnc21`, for which the GI50 with OVCAR-5 ovarian is 12.2 µM; in the assay on LOX IMVI melanoma, 3.12 µM; in the assay with SF-295 CNS, 8.08 µM; with MOLT-4 leukemia, 3.55 µM; with PC-3 prostate, 4.86 µM; in the assay on RXF 393 renal, 3.46 µM. For the same compound, the GI50 in the assay on SNB-75 CNS is 2.76 µM; in the assay on HOP-92 NSCLC it was 1.7 µM; with SF-268 CNS, 9 µM; with SK-MEL-2 melanoma it was 4.62 µM. Besides, the TGI was found to be 30.2 µM in the assay on OVCAR-5 ovarian; 16.3 µM in the assay with LOX IMVI melanoma; 25.3 µM in the assay with SF-295 CNS; 18.6 µM in the assay with MOLT-4 leukemia; 28.7 µM in the assay with PC-3 prostate; 19.5 µM in the assay on RXF 393 renal. For the same compound, the TGI with SNB-75 CNS is 19 µM; in the assay with HOP-92 NSCLC, 9.2 µM; in the assay with SF-268 CNS, 26.5 µM; with SK-MEL-2 melanoma, 28.6 µM.

Regarding `CC[CH2][Pb]([CH2]CC)([CH2]CC)[NH]S(=O)(=O)c1ccc(C)cc1`, the GI50 in the assay with OVCAR-5 ovarian is 0.0667 µM; in the assay with LOX IMVI melanoma, 0.025 µM; in the assay with SF-295 CNS, 0.0898 µM; with MOLT-4 leukemia, 0.0746 µM; in the assay with PC-3 prostate it was 0.0701 µM; in the assay with RXF 393 renal, 0.0218 µM. The GI50 in the assay on SNB-75 CNS was 0.0421 µM; with HOP-92 NSCLC it was 0.036 µM; in the assay on SF-268 CNS, 0.035 µM; in the assay on SK-MEL-2 melanoma, 0.0176 µM. The TGI with OVCAR-5 ovarian is 0.242 µM; with LOX IMVI melanoma, 0.0655 µM; in the assay on SF-295 CNS, 0.203 µM; in the assay on MOLT-4 leukemia, 4.51 µM; in the assay with PC-3 prostate it was 0.196 µM; in the assay on RXF 393 renal it was 0.0869 µM. Also, the TGI in the assay with SNB-75 CNS worked out at 0.132 µM; with HOP-92 NSCLC it was 0.161 µM; in the assay on SF-268 CNS, 0.117 µM; with SK-MEL-2 melanoma, 0.0436 µM.

On to `S=c1ssc(Sc2ccccn2)c1Cl`, for which the GI50 in the assay with OVCAR-5 ovarian is 25.6 µM; in the assay with LOX IMVI melanoma, 5.09 µM; with SF-295 CNS it was 16.5 µM; in the assay with MOLT-4 leukemia, 2.53 µM; in the assay on PC-3 prostate, 11.9 µM; in the assay on RXF 393 renal, 16.9 µM. The GI50 was 23.3 µM with SNB-75 CNS, 12.6 µM in the assay on HOP-92 NSCLC, 13.5 µM in the assay on SF-268 CNS and 34.6 µM in the assay on SK-MEL-2 melanoma. Also, the TGI was determined as 48.3 µM in the assay on OVCAR-5 ovarian; 17 µM in the assay on LOX IMVI melanoma; 34.5 µM in the assay on SF-295 CNS; 5.84 µM in the assay on MOLT-4 leukemia; 24.2 µM in the assay with PC-3 prostate; 32.6 µM in the assay on RXF 393 renal. Further, the TGI in the assay on SNB-75 CNS is 56.8 µM; with HOP-92 NSCLC, 26.8 µM; with SF-268 CNS, 26.4 µM; with SK-MEL-2 melanoma, greater than 100 µM.
